The assay concerns CEM cells HIV-1 protection, formazan growth assay. The assay is described as follows: NCI AIDS Antiviral Assay. The note with it: for IC50: measured here: growth of uninfected CEM cells. An outline of the steps:
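Protection of CEM cells against HIV-1 measured as cell growth via soluble formazan read-out, with five concentrations tested on both infected and uninfected cells; failure to protect may reflect toxicity.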

Structures are written as SMILES. The source made the active and inactive calls.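 How the source made its calls: active means compounds giving half or more protection of infected cells from virus-caused growth loss, again on retest; inactive means the rest.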

The results in this text go back to PubChem BioAssay AID179 (DTP/NCI, 2004).

As usually defined, the EC50 is the concentration needed to bring the measured effect to its halfway point. The term IC50 denotes the concentration that inhibits the measured activity by half.

As to `COc1ccc(CNc2nc3c(NC(C)=O)cc(C(F)(F)F)cc3nc2-c2ccccc2)cc1OC`, the EC50 is over 10.5 µM and the IC50 is over 10.5 µM. For the compound `COC(=O)[C@H](Cc1ccccc1)NC(=O)N(CCNC(=O)OC(C)(C)C)c1ccccc1`, the EC50 was over 200 µM and the IC50 was determined as 102 µM. For the compound `C=CCCOC(=O)CO[N+](=O)[O-]`, the result was inactive.

Regarding `CN(C)CCC1(C)OCCC2=C1Cc1ccccc12` (stereo not drawn), the EC50 was over 200 µM and the IC50 turned out to be 135 µM. In the same order, the values of `Cc1ccc(C2(C)CC(C)(C)c3ccc(C)cc3O2)c(O)c1` (stereo not drawn) are over 200 µM and 20.4 µM. In the same order, the values of `O=C(O)c1cc(=O)c2cc3c(cc2o1)OCc1ccccc1-3` are over 93.3 µM and over 93.3 µM.

For the compound `CC(C)N=C(NC#N)NS(=O)(=O)c1cnccc1NC1CCCCCCC1`, the EC50 was over 200 µM and the IC50 was over 200 µM. `CNS(=O)(=O)NNS(=O)(=O)c1ccc(OC)cc1`: the EC50 is over 617 µM and the IC50 amounted to 324 µM. The corresponding values for `CC1=C(C(=O)Nc2cccc3c2C(=O)NC3=O)CC(C(=O)Nc2cccc3c2C(=O)NC3=O)=C(C)N1` are over 200 µM and over 200 µM. In the same order, the values of `Nc1c(N=Nc2ccc(-c3ccc(N=Nc4cc(S(=O)(=O)O)c5ccccc5c4O)cc3)cc2)cc(S(=O)(=O)O)c2ccccc12` are 9.12 µM and over 100 µM. In the same order, the values of `CN(N)/N=N/c1nc[nH]c1[N+](=O)[O-]` are over 200 µM and 5.62 µM. For `O=C(Cc1nc2ccccc2o1)C(=O)Nc1ccccc1C(F)(F)F`, the result was inactive. Take `CON(C)C(=O)C(C)N(Cc1ccccc1)Cc1ccccc1` (stereo not drawn): the EC50 is over 83.2 µM and the IC50 was found to be 33.1 µM. `CSc1nnc2n1-c1ccccc1SCC2`: the EC50 was over 1000 µM and the IC50 is 389 µM. In the same order, the values of `CNC(=O)n1ncc2ccc([N+](=O)[O-])cc21` are over 200 µM and 158 µM.

For the compound `Cc1cc(CN(Cc2ccccc2)Cc2nc3ccccc3[nH]2)c(O)c(CN(Cc2nc3ccccc3[nH]2)Cc2nc3ccccc3[nH]2)c1`, the EC50 is over 200 µM and the IC50 is 24.5 µM. In the same order, the values of `Clc1ccccc1C(SCc1ccccc1)SCc1ccccc1` are over 200 µM and 195 µM. In the same order, the values of `Nn1c(=O)n2n(c1=O)C1CCC2C1` are over 200 µM and over 200 µM. The corresponding values for `CCOC(=O)/C(C#N)=C/c1ccccc1[N+](=O)[O-]` are over 275 µM and 46.8 µM. On to `CC1CC(=O)NC2CC1C2(C)C` (stereo not drawn), for which the EC50 is over 1480 µM and the concentration for half-maximal inhibition (IC50) is over 1480 µM. Take `O=C(CSc1nnc(Cc2ccccc2)o1)Nc1ccc(Cl)cc1[N+](=O)[O-]`: the EC50 is over 617 µM and the concentration for half-maximal inhibition (IC50) stood at 25.1 µM. `O=C1CCC2c3ccccc3NCN12` (stereo not drawn): the outcome was inactive.

Regarding `Oc1cccc2cc(Br)cnc12`, the EC50 is over 20 µM and the half-inhibitory concentration (IC50) stood at 5.01 µM. In the case of `CC1C2(C)OC(=N)C(C#N)(C(c3ccccc3)O2)C1(C#N)C#N` (stereo not drawn), the EC50 was over 200 µM and the IC50 came to 10.7 µM. In the same order, the values of `N#CCCN(CCC#N)c1ccc(/C=C2\N=C(CN3C(=O)c4ccccc4C3=O)OC2=O)cc1` are over 79.4 µM and over 79.4 µM. As to `O=P(O)(O)c1ccc2c(c1)OCCOCCOCCOCCO2`, the EC50 was over 200 µM and the 50% inhibitory concentration (IC50) is over 200 µM.

As to `Cc1[nH]c(=O)n2c(C)nnc2c1C(=O)O`, the result was inactive. For the compound `CCNC(=O)OCCCCC=C(c1cc(Cl)c(OC)c(C(=O)OC)c1)c1cc(Cl)c(OC)c(C(=O)OC)c1`, the EC50 was over 200 µM and the 50% inhibitory concentration (IC50) stood at 14.5 µM. In the case of `Cc1ccc(S(=O)(=O)C2=Cc3ccc(C(F)(F)F)cc3C2(O)c2cccc(C(F)(F)F)c2)cc1` (stereo not drawn), the EC50 was over 200 µM and the IC50 stood at 2.19 µM. In the same order, the values of `CC(=O)OCC1(C)ON=C2CCCCC21` (stereo not drawn) are over 1170 µM and over 1170 µM. The corresponding values for `OCc1ccc2c(c1)CC1(Cc3ccccc3C1)C2` are over 200 µM and 20 µM.

Turning to `O=[As]O`, the outcome was inactive. As to `CCOC(=O)c1cnn2c1ncc1c(=O)n(NC(N)=O)ccc12`, the EC50 was over 200 µM and the IC50 is over 200 µM. For `Clc1ncccc1SSc1cccnc1Cl`, the EC50 was over 200 µM and the IC50 turned out to be 89.1 µM. For `COc1ccc(/C=C2\N=C(SC)N(CN3CCOCC3)C2=O)cc1`, the EC50 was over 200 µM and the IC50 turned out to be 29.5 µM. The compound `O=[N+]([O-])c1cccc[c]1[Sb](=[O])([OH])[OH]` gave an EC50 of over 200 µM and an IC50 of 7.41 µM.

Turning to `C=C1C2CCC3(CCC4C5(C)CCCC4(CN(C(C)=O)C5)C3C2)C1O` (stereo not drawn), the result was inactive. For the compound `N#CC(N)(C(=O)C(=O)NCCCNC(=O)C(=O)C(N)(C#N)c1ccc(Cl)cc1)c1ccc(Cl)cc1` (stereo not drawn), the EC50 is over 174 µM and the 50% inhibitory concentration (IC50) was over 174 µM. Turning to `O=c1/c(=N\O)c(=O)c2ccccc2/c1=N\O`, the EC50 was over 200 µM and the IC50 is 10 µM. The corresponding values for `Nn1c(Cc2ccccc2)nnc1Cc1ccccc1` are over 200 µM and over 200 µM. In the same order, the values of `C=C1CC(Cn2cc(C)c(=O)[nH]c2=O)(c2ccc(-c3ccccc3)cc2)OC1=O` (stereo not drawn) are over 20 µM and 0.288 µM. `Cc1nc2c(=O)n3c4c(cccc4c2o1)CCC3`: the EC50 is over 200 µM and the IC50 was found to be 107 µM. The corresponding values for `O=C(/C=C/c1ccc(-c2ccccc2)cc1)c1ccccc1` are over 13.2 µM and over 13.2 µM. The corresponding values for `CCOC(=O)c1[nH]n(-c2ccccc2)c(=O)c1C=NC(=S)c1cccnc1` are over 200 µM and 89.1 µM.

As for `CC1=NN(C(=O)c2ccc([N+](=O)[O-])cc2)C(=O)C1N=Nc1ccccc1C(=O)O` (stereo not drawn), the result was inactive. Regarding `COC(=O)c1cc2cnc1CSCc1cnc(c(C(=O)OC)c1)CSC2`, the EC50 was over 200 µM and the half-maximal inhibitory concentration (IC50) was over 200 µM. Take `O=S1Nc2cccc(C(F)(F)F)c2S1` (stereo not drawn): the EC50 is over 57.5 µM and the IC50 is over 57.5 µM. For `O=C(c1cccs1)N(C(=O)N1CCC(c2ccccc2)CC1)c1ccccc1`, the EC50 was over 200 µM and the IC50 is over 200 µM. As for `CC(NC(=O)Cc1ccccc1)NC(=O)C(C)C(=O)NCc1ccccc1` (stereo not drawn), the outcome was inactive.

Take `O=C(O)CCC1CCc2cccc(O)c2C1=O` (stereo not drawn): the outcome was inactive. With `O=C(O)/C(=C/c1ccc([N+](=O)[O-])cc1)c1ccccc1`, the EC50 is over 490 µM and the concentration for half-maximal inhibition (IC50) turned out to be 95.5 µM.

`CC(C)c1oc2ccccc2c1C(=O)c1ccc(O)cc1`: the EC50 was over 148 µM and the IC50 was 13.2 µM.

Take `COc1ccccc1Cn1nc(OC)c2cc([N+](=O)[O-])ccc21`: the EC50 was over 151 µM and the IC50 was over 151 µM. As for `COc1ccc(/C=C/C(=O)OC/C=C/c2ccc3c(c2)OCO3)cc1OC`, the EC50 was over 200 µM and the IC50 is 102 µM. Regarding `O=C1CCCC2=C1C(c1ccncc1)Nc1ccccc1N2` (stereo not drawn), the EC50 is over 200 µM and the IC50 was over 200 µM. As for `O=C1c2ccccc2C2(O)Nc3cc(O)ccc3C12O` (stereo not drawn), the EC50 is over 933 µM and the IC50 came to 661 µM.
